Measured values: patent publication US6737383B1, “Herbicidal oxadiazolidines” (priority 1999, dated 2004)

Tests used:
corn = experiment: Test B pre/postemergence corn; type: in vivo, Zea mays
Outline: (§1)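 Response is a visual 0-to-10 score relative to untreated plants, where 0 means no effect and 10 means complete control, taken twelve to sixteen days after application. Treatments went onto soil at planting and onto foliage of 1- to 4-leaf plants, using a surfactant-containing non-phytotoxic solvent.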

rice = experiment: Test B flood test rice; type: in vivo, Oryza sativa
Outline: (§2)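 Flood test on plants grown to the 2-leaf stage; treated plants kept in greenhouse twelve to sixteen days, then visually rated against controls on a 0 (no effect) to 10 (complete control) scale.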

smallflower flatsedge = experiment: Test B flood test smallflower flatsedge; type: in vivo, Cyperus difformis
Outline: as §2

surinam grass = experiment: Test B pre/postemergence surinam grass; type: in vivo, Brachiaria decumbens
Outline: as §1

wheat = experiment: Test B pre/postemergence wheat; type: in vivo, Triticum aestivum
Outline: as §1

rape = experiment: Test B pre/postemergence rape; type: in vivo, Brassica napus
Outline: as §1

pigweed = experiment: Test B pre/postemergence pigweed; type: in vivo, Amaranthus retroflexus
Outline: as §1

bedstraw = experiment: Test B pre/postemergence bedstraw; type: in vivo, Galium aparine; details: Postemergence, Rate 62 g/ha; scale 0 to 10, 0 is no effect, 10 is complete control
Outline: as §1

blackgrass = experiment: Test B pre/postemergence blackgrass; type: in vivo, Alopecurus myosuroides
Outline: as §1

giant foxtail = experiment: Test B pre/postemergence giant foxtail; type: in vivo, Setaria faberii
Outline: as §1

morningglory = experiment: Test B pre/postemergence morningglory; type: in vivo, Ipomoea hederacea
Outline: as §1

bamyardgrass = experiment: Test B flood test barnyardgrass; type: in vivo, Echinochloa crus-galli
Outline: as §2

sugar beet = experiment: Test B pre/postemergence sugar beet; type: in vivo, Beta vulgaris
Outline: as §1

purple nutsedge = experiment: Test B pre/postemergence purple nutsedge; type: in vivo, Cyperus rotundus
Outline: as §1

crabgrass = experiment: Test B pre/postemergence crabgrass; type: in vivo, Digitaria sanguinalis
Outline: as §1

wild oat = experiment: Test B pre/postemergence wild oat; type: in vivo, Avena fatua
Outline: as §1

[1] = Postemergence, Rate 62 g/ha, scale 0 to 10, 0 is no effect, 10 is complete control
[2] = Postemergence, Rate 125 g/ha, scale of 0 to 10 where 0 is no effect and 10 is complete control
[3] = Postemergence, Rate 250 g/ha, scale of 0 to 10, 0 is no effect, 10 is complete control
[4] = Preemergence, Rate 62 g/ha, scale of 0 to 10 where 0 is no effect and 10 is complete control
[5] = Preemergence, Rate 125 g/ha, scale of 0 to 10 where 0 is no effect and 10 is complete control
[6] = Preemergence, Rate 250 g/ha, scale 0 to 10 (0 no effect, 10 complete control)
[7] = Preemergence, Rate 500 g/ha, scale of 0 to 10 where 0 is no effect and 10 is complete control
[8] = Rate 500 g/ha, Postemergence, scale 0 to 10, 0 is no effect, 10 is complete control
[9] = Rate 62 g/ha, flood test species, Pre-emergence, visual evaluation after twelve to sixteen days
[10] = Rate 125 g/ha, under heading Pre-emergence, flood test species, visual evaluation after twelve to sixteen days
[11] = Rate 250 g/ha, Pre-emergence (flood test species), scale 0 to 10, 0 is no effect, 10 is complete control
[12] = Rate 500 g/ha, Pre-emergence section of Table B, 0 to 10 scale (0 no effect, 10 complete control)

CC[C@H](C)n1c(=O)on(C(=O)N(c2ccc(Cl)cc2)C(C)C)c1=O [Compound 664]
Plant response rating, Corn (corn; [1]): 0
Corn plant response rating (corn; [2]): 0
Corn plant response rating (corn; [3]): 0
Corn plant response rating (corn; [4]): 0
Corn plant response rating (corn; [5]): 0
Plant response rating, Corn (corn; [6]): 0
Plant response rating, Corn (corn; [7]): 0
Corn plant response rating (corn; [8]): 0
Plant response rating, Rice (0 to 10 scale, 0 is no effect, 10 is complete control) (rice; [9]): 0
Rice plant response rating (0 to 10 scale, 0 is no effect, 10 is complete control) (rice; [10]): 0
Rice plant response rating (rice; [11]): 0
Rice plant response rating (rice; [12]): 0
Plant response rating, S. Flatsedge (0 to 10 scale, 0 is no effect, 10 is complete control) (smallflower flatsedge; [9]): 0
S. Flatsedge plant response rating (0 to 10 scale, 0 is no effect, 10 is complete control) (smallflower flatsedge; [10]): 0
S. Flatsedge plant response rating (smallflower flatsedge; [11]): 0
S. Flatsedge plant response rating (smallflower flatsedge; [12]): 0
Plant response rating, B. signalgrass (surinam grass; [1]): 0
Plant response rating, B. signalgrass (surinam grass; [2]): 0
B. signalgrass plant response rating (surinam grass; [3]): 4
B. signalgrass plant response rating (surinam grass; [4]): 1
B. signalgrass plant response rating (surinam grass; [5]): 5
Plant response rating, B. signalgrass (surinam grass; [6]): 5
Plant response rating, B. signalgrass (surinam grass; [7]): 8
B. signalgrass plant response rating (surinam grass; [8]): 7
Plant response rating, Wheat (wheat; [1]): 0
Wheat plant response rating (wheat; [2]): 0
Wheat plant response rating (wheat; [4]): 0
Wheat plant response rating (wheat; [5]): 0
Plant response rating, Wheat (wheat; [6]): 0
Plant response rating, Wheat (wheat; [7]): 5
Wheat plant response rating (wheat; [8]): 2
Plant response rating, Rape (rape; [1]): 0
Rape plant response rating (rape; [2]): 0
Rape plant response rating (rape; [4]): 0
Rape plant response rating (rape; [5]): 1
Plant response rating, Rape (rape; [6]): 1
Plant response rating, Rape (rape; [7]): 6
Rape plant response rating (rape; [8]): 3
Plant response rating, Redroot pigweed (pigweed; [1]): 0
Redroot pigweed plant response rating (pigweed; [2]): 2
Redroot pigweed plant response rating (pigweed; [4]): 2
Redroot pigweed plant response rating (pigweed; [5]): 7
Plant response rating, Redroot pigweed (pigweed; [6]): 7
Plant response rating, Redroot pigweed (pigweed; [7]): 10
Redroot pigweed plant response rating (pigweed; [8]): 6
Plant response rating, Bedstraw (bedstraw): 0
Plant response rating, Blackgrass (blackgrass; [1]): 4
Blackgrass plant response rating (blackgrass; [2]): 7
Blackgrass plant response rating (blackgrass; [3]): 9
Blackgrass plant response rating (blackgrass; [4]): 5
Blackgrass plant response rating (blackgrass; [5]): 6
Plant response rating, Blackgrass (blackgrass; [6]): 6
Plant response rating, Blackgrass (blackgrass; [7]): 8
Blackgrass plant response rating (blackgrass; [8]): 9
Plant response rating, Giant foxtail (giant foxtail; [1]): 2
Giant foxtail plant response rating (giant foxtail; [2]): 6
Giant foxtail plant response rating (giant foxtail; [3]): 9
Giant foxtail plant response rating (giant foxtail; [4]): 9
Giant foxtail plant response rating (giant foxtail; [5]): 10
Plant response rating, Giant foxtail (giant foxtail; [6]): 10
Plant response rating, Giant foxtail (giant foxtail; [7]): 10
Giant foxtail plant response rating (giant foxtail; [8]): 9
Plant response rating, Morningglory (morningglory; [1]): 0
Morningglory plant response rating (morningglory; [2]): 2
Morningglory plant response rating (morningglory; [3]): 9
Morningglory plant response rating (morningglory; [4]): 0
Morningglory plant response rating (morningglory; [5]): 0
Plant response rating, Morningglory (morningglory; [6]): 0
Plant response rating, Morningglory (morningglory; [7]): 4
Morningglory plant response rating (morningglory; [8]): 10
Plant response rating, Barnyardgrass (0 to 10 scale, 0 is no effect, 10 is complete control) (bamyardgrass; [9]): 0
Barnyardgrass plant response rating (0 to 10 scale, 0 is no effect, 10 is complete control) (bamyardgrass; [10]): 0
Barnyardgrass plant response rating (bamyardgrass; [11]): 0
Barnyardgrass plant response rating (bamyardgrass; [12]): 0
Plant response rating, Sugarbeets (sugar beet; [1]): 0
Sugarbeets plant response rating (sugar beet; [2]): 0
Sugarbeets plant response rating (sugar beet; [4]): 0
Sugarbeets plant response rating (sugar beet; [5]): 0
Plant response rating, Sugarbeets (sugar beet; [6]): 0
Plant response rating, Sugarbeets (sugar beet; [7]): 5
Sugarbeets plant response rating (sugar beet; [8]): 0
Plant response rating, Nutsedge (purple nutsedge; [1]): 0
Nutsedge plant response rating (purple nutsedge; [2]): 0
Nutsedge plant response rating (purple nutsedge; [4]): 0
Nutsedge plant response rating (purple nutsedge; [5]): 0
Plant response rating, Nutsedge (purple nutsedge; [6]): 0
Plant response rating, Nutsedge (purple nutsedge; [7]): 0
Nutsedge plant response rating (purple nutsedge; [8]): 0
Plant response rating, Crabgrass (crabgrass; [1]): 0
Crabgrass plant response rating (crabgrass; [2]): 1
Crabgrass plant response rating (crabgrass; [3]): 9
Crabgrass plant response rating (crabgrass; [4]): 4
Crabgrass plant response rating (crabgrass; [5]): 8
Plant response rating, Crabgrass (crabgrass; [6]): 9
Plant response rating, Crabgrass (crabgrass; [7]): 10
Crabgrass plant response rating (crabgrass; [8]): 9
Plant response rating, Wild oats (wild oat; [1]): 0
Wild oats plant response rating (wild oat; [2]): 0
Wild oats plant response rating (wild oat; [4]): 0
Wild oats plant response rating (wild oat; [5]): 3
Plant response rating, Wild oats (wild oat; [6]): 3
Plant response rating, Wild oats (wild oat; [7]): 7
Wild oats plant response rating (wild oat; [8]): 7
